Test results taken from the Kinase Knowledgebase extract (Sharma et al. 2016).

Molecular target: ROCK2 (human) (UniProt O75116)
Assay: Inhibition of ROCK2 Kinase Activity

Sequence of ROCK2 (human) (O75116 whole entry, looked up): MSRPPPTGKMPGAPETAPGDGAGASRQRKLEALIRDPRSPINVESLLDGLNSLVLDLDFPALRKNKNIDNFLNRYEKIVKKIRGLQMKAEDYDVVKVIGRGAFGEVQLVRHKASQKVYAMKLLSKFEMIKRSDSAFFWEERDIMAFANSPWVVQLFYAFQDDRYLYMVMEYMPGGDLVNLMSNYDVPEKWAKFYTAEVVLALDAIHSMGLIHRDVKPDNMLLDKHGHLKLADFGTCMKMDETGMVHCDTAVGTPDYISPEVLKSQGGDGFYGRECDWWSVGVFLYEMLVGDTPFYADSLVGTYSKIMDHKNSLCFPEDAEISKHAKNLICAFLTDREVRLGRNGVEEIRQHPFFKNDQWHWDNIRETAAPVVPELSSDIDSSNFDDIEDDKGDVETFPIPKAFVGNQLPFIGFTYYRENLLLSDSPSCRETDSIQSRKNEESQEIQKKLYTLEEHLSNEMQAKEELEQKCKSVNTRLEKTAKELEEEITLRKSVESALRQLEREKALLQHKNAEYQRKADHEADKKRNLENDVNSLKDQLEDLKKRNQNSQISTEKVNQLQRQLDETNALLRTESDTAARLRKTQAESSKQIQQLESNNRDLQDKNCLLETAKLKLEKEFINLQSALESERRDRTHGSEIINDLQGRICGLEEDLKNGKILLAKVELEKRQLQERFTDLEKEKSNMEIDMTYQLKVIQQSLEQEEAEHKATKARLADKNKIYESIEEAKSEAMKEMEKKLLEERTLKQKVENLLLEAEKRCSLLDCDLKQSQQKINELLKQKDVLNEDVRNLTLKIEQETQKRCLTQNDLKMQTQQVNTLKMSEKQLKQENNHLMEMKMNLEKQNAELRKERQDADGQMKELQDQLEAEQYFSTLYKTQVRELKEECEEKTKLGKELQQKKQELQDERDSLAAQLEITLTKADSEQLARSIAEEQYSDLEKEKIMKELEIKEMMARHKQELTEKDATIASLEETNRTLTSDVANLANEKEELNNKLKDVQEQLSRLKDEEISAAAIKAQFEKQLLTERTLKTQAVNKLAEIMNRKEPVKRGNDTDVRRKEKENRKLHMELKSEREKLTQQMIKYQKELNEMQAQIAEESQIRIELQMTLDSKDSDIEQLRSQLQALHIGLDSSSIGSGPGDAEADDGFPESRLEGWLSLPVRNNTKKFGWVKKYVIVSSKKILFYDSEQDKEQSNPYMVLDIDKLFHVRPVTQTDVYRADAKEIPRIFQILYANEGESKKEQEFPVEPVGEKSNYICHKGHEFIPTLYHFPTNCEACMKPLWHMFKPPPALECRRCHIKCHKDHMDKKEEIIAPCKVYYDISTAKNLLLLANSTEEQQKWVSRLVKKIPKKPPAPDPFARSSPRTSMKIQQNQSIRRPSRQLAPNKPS

Row | IC50 [nM] | SMILES
1 | 43 | N#Cc1ccc2c(c1)CC(c1nc3ccc(-c4ccnc(N)n4)cc3[nH]1)CO2 (stereo unspecified)
2 | 40 | CN(C)S(=O)(=O)c1ccc2c(c1)CC(c1nc3ccc(-c4ccnc(N)n4)cc3[nH]1)CO2 (stereo unspecified)
3 | 0.8 | Nc1nccc(-c2ccc3nc(C4COc5ccc(CC(=O)NC6CC6)cc5C4)[nH]c3c2)n1 (stereo unspecified)
4 | 316 | CCCOc1ccc2c(c1)CC(c1nc3ccc(-c4ccnc(N)n4)cc3[nH]1)CO2 (stereo unspecified)
5 | 10 | Nc1nccc(-c2ccc3nc(C4COc5ccc(Br)cc5C4)[nH]c3c2)n1 (stereo unspecified)
6 | 1.2 | Nc1nccc(-c2ccc3nc(C4COc5ccc(C(=O)NC6CC6)cc5C4)[nH]c3c2)n1 (stereo unspecified)
7 | 1.2 | Nc1nccc(-c2ccc3nc(C4COc5ccc(C(=O)NCCN6CCOCC6)cc5C4)[nH]c3c2)n1 (stereo unspecified)
8 | 4 | NC(=O)c1ccc2c(c1)CC(c1nc3ccc(-c4ccnc(N)n4)cc3[nH]1)CO2 (stereo unspecified)
9 | 2.7 | CC(=O)c1ccc2c(c1)CC(c1nc3ccc(-c4ccnc(N)n4)cc3[nH]1)CO2 (stereo unspecified)
10 | < 1 | Nc1nccc(-c2ccc3nc(C4COc5ccc(C(=O)NCc6ccccc6)cc5C4)[nH]c3c2)n1 (stereo unspecified)
11 | 4.7 | Nc1nccc(-c2ccc3nc(C4COc5ccc(F)cc5C4)[nH]c3c2)n1 (stereo unspecified)
